Measurements: US10662203B2, “Pyrido[2,3-b]indole compounds for the treatment and prophylaxis of bacterial infection” (Hoffmann-La Roche Inc., priority 2017, dated 2020)
Converted amounts (≈) assume the structure as drawn. Where two headings read alike, the source gives them in different places.

Tests used:
[1] = Single dose PK study (SDPK) in female CD-1 mouse; assay type: in vivo; settings: MOUSE IV; for clearance: female, CD-1, plasma, read-out: CL total
Experimental: Single Dose PK Study (SDPK) in Female CD-1 Mouse: The single dose PK in female CD-1 mouse was performed to assess compound's pharmacokinetic properties. One group of animals were dosed via bolus intravenous (IV) of the respective compound. Blood samples (approximately 30 μL) were collected via saphenous vein at 5 mins, 15 min, 30 min, 1 hr, 2 hr, 4 hr and 7 hr. For last time point (24 hr), samples were collected via cardiac puncture while the mouse was under anesthesia. Blood samples were placed into tubes containing EDTA-K2 anticoagulant (2 μL of 0.5M per tube) and centrifuged at 3000 rpm for 10 minutes at 4° C. within half an hour to separate plasma from the samples. Following centrifugation, plasma samples were stored in polypropylene tubes, quick frozen over dry ice and kept at −70±10° C. until LC/MS/MS analysis. The pharmacokinetic parameters were calculated using non-compartmental module of WinNonlin® Professional 6.4.

S. aureus (ATCC29213) = test: 50% growth inhibitory concentration (IC50) determination assay; assay type: cell-based; settings: Staphylococcus aureus, Iso-Sensitest broth, 0.098 = detection limit
Method in brief: (§1)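 Growth was tracked as optical density at 600 nm every 20 minutes for 16 h at 35±2° C, giving IC50 values. Inocula of ~5×10^5 CFU/mL in Iso-Sensitest broth faced two-fold compound dilutions spanning 50 to 0.097 μM final.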

A. baumannii (ATCC17978) = test: as above; assay type: cell-based; settings: Acinetobacter baumannii, ATCC17978, A. baumannii ATCC17978; Iso-Sensitest broth; 0.098 = detection limit
Method in brief: as §1

[2] = Cytotoxicity assay (HepG2, CellTiter-Blue cell viability); assay type: cell-based; settings: human; HepG2 cells, 3 days treatment; "*": the detection limit; read-out: CC50
Method in brief: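 HepG2 cells (1.2×10^4 per well) exposed to compounds for 3 days; viability then read by CellTiter-Blue fluorescence after 3 h at 37 °C. CC50 from four-parameter logistic fit.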

[3] = Lyophilisation solubility assay (LYSA); assay type: physicochemical; settings: phosphate buffer, pH 6.5, aqueous buffer, thermodynamic from solid, 0.05 M phosphate buffer, HPLC-UV
Method in brief: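 Duplicate samples made from 10 mM DMSO stock. DMSO evaporated and the residue taken up in 0.05 M phosphate buffer, pH 6.5, stirred 1 h and shaken 2 h, then left overnight. Filtrate and its 1/10 dilution quantified by HPLC-UV.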

[4] = system: K. pneumoniae (ATCC10031); test: 50% growth inhibitory concentration (IC50) determination assay; assay type: cell-based; settings: Klebsiella pneumoniae, Iso-Sensitest broth, 0.098 = detection limit
Method in brief: as §1

Row | Structure (SMILES) | AUC total ([1]; 0.7 mg/kg-Solution) [µg·h/mL] | clearance ([1]; 0.7 mg/kg-Solution) [L/h/kg] | IC50 (S. aureus (ATCC29213)) [µM] | IC50 (A. baumannii (ATCC17978)) [µM] | CC50 at 3 days [2] [µM] | solubility thermodynamic [3] [mg/mL] | AUC total ([1]; 1.0 mg/kg-Solution) [µg·h/mL] | clearance ([1]; 1.0 mg/kg-Solution) [L/h/kg] | IC50 [4] [µM]
1 | CNc1cc(F)c(F)c2c1[nH]c1ncc(-c3cnc4c(c3)c(=O)c(C(=O)O)cn4CC(N)C(C)C)c(N3CCOCC3)c12 (centres unmarked) [Example 1.57] | 0.1908 | 5.08 | < 0.098 | 0.198 | 35.9 |  |  |  | 
2 | CNc1cc(F)cc2c1[nH]c1ncc(-c3cnc4c(c3)c(=O)c(C(=O)O)cn4NC)c(N3CC[C@H]4CN(C)CC43)c12 (some centres unmarked) [Example 1.86] |  |  | 0.15 | 0.175 | 43.4 | > 0.805 | 0.1941 | 5.19 | < 0.098
3 | CNc1cc(F)cc2c1[nH]c1ncc(-c3cnc4c(c3)c(=O)c(C(=O)O)cn4CC(C)O)c(N3CCOCC3)c12 (centres unmarked) [Example 1.53] |  |  | < 0.098 | 0.764 | > 100 |  | 0.2113 | 5.01 | < 0.098
4 | CNc1cc(F)c(F)c2c1[nH]c1ncc(-c3cnc4c(c3)c(=O)c(C(=O)O)cn4CCN(C)C)c(N(C)C)c12 [Example 1.22] |  |  | < 0.098 | 0.118 |  |  | 0.1799 | 5.48 | < 0.098
5 | CCn1cc(C(=O)O)c(=O)c2cc(-c3cnc4[nH]c5c(NC)cc(F)c(F)c5c4c3N3CC4CC3CO4)cnc21 (centres unmarked) [Example 1.05] |  |  | < 0.098 | 0.725 |  |  | 0.1627 | 6 | < 0.098
6 | CNc1cc(F)c(F)c2c1[nH]c1ncc(-c3cnc4c(c3)c(=O)c(C(=O)O)cn4C)c(N3CCC4(CN(C)CCO4)C3)c12 (centres unmarked) [Example 1.202] |  |  | < 0.098 | 0.16 |  |  | 0.1675 | 5.89 | < 0.098
7 | CNc1cc(F)c(F)c2c1[nH]c1ncc(-c3cnc4c(c3)c(=O)c(C(=O)O)cn4C)c(N3CC4[C@H](CCN4C)C3)c12 (some centres unmarked) [Example 1.192] |  |  | < 0.098 | 0.105 |  | 0.058 (≈ 104 µM) | 0.235 | 4.18 | < 0.098
8 | CNc1cc(F)c(F)c2c1[nH]c1ncc(-c3cnc4c(c3)c(=O)c(C(=O)O)cn4C)c(N3CC4[C@@H](C3)OCCN4C)c12 (some centres unmarked) [Example 1.241] |  |  | < 0.098 | 0.095 |  |  | 0.1963 | 5.06 | < 0.098
9 | CNc1cc(F)cc2c1[nH]c1ncc(-c3cnc4c(c3)c(=O)c(C(=O)O)cn4NC)c(N3CCOCC3)c12 [Example 1.52] |  |  | < 0.098 | 0.233 |  |  | 0.3058 | 3.44 | < 0.098
10 | CNc1c(F)c(F)cc2c1[nH]c1ncc(-c3cnc4c(c3)c(=O)c(C(=O)O)cn4C3CCNC3)c(N(C)C)c12 (centres unmarked) [Example 1.55] |  |  | 0.101 | 0.334 | 49.8 |  | 0.1659 | 5.92 | 
11 | CCCN(C)c1c(-c2cnc3c(c2)c(=O)c(C(=O)O)cn3CC)cnc2[nH]c3c(NC)cc(F)c(F)c3c12 [Example 1.07] | 0.2607 | 2.75 |  |  |  |  |  |  | 
12 | CNc1cc(F)c(F)c2c1[nH]c1ncc(-c3cnc4c(c3)c(=O)c(C(=O)O)cn4C)c(N3CCC(O)CC3)c12 [Example 1.43] |  |  | < 0.098 | 0.663 | 39.3 |  | 0.2351 | 3.98 | < 0.098
13 | CNc1cc(F)c(F)c2c1[nH]c1ncc(-c3cnc4c(c3)c(=O)c(C(=O)O)cn4C)c(N3CC[C@H]4CCN(C)C4C3)c12 (some centres unmarked) [Example 1.196] |  |  | < 0.098 | 0.102 |  | 0.025 (≈ 43.6 µM) | 0.1774 | 5.9 | < 0.098
14 | CNc1cc(F)c(F)c2c1[nH]c1ncc(-c3cnc4c(c3)c(=O)c(C(=O)O)cn4C)c(N3C[C@H]4CCN(C)[C@H]4C3)c12 [Example 3.08A] |  |  | < 0.098 | 0.049 |  | 0.119 (≈ 213 µM) | 0.1905 | 5.2 | < 0.098
15 | CNc1cc(F)c(F)c2c1[nH]c1ncc(-c3cnc4c(c3)c(=O)c(C(=O)O)cn4NC)c(N3C[C@H]4CCN(C)[C@H]4C3)c12 [Example 3.07A] |  |  | < 0.098 | 0.076 | > 100 | 0.02 (≈ 34.8 µM) | 0.214 | 4.64 | < 0.098
16 | CNc1cc(F)c(F)c2c1[nH]c1ncc(-c3cnc4c(c3)c(=O)c(C(=O)O)cn4NC)c(N3CC[C@@H]4CN(C)C[C@@H]43)c12 [Example 3.01B, 6-[5,6-difluoro-8-(methylamino)-4-[(3aR,6aR)-5-methyl-2,3,3a,4,6,6a-hexahydropyrrolo[2,3-c]pyrrol-1-yl]-9H-pyrido[2,3-b]indol-3-yl]-1-(methylamino)-4-oxo-1,8-naphthyridine-3-carboxylic acid] |  |  | 0.168 | 0.56 | 39.4 | 0.265 (≈ 461 µM) | 0.1561 | 6.32 | < 0.098
17 | CNc1cc(F)c(F)c2c1[nH]c1ncc(-c3cnc4c(c3)c(=O)c(C(=O)O)cn4NC)c(N3CCC[C@H]3CN(C)C)c12 [Example 1.217] |  |  | 0.12 | 0.187 | 27.8 | 0.19 (≈ 330 µM) |  |  | < 0.098
18 | CNc1cc(F)c(F)c2c1[nH]c1ncc(-c3cnc4c(c3)c(=O)c(C(=O)O)cn4NC)c(N3CC4[C@H](CCN4C)C3)c12 (some centres unmarked) [Example 1.193] |  |  | < 0.098 | 0.096 | > 100 | 0.016 (≈ 27.8 µM) |  |  | < 0.098
19 | CNc1cc(F)c(F)c2c1[nH]c1ncc(-c3cnc4c(c3)c(=O)c(C(=O)O)cn4C)c(N3CC(N(C)C)C4(CC4)C3)c12 (centres unmarked) [Example 1.207] |  |  | 0.101 | 0.203 |  | 0.073 (≈ 127 µM) | 0.1883 | 5.14 | < 0.098
